pIC50: −log10 of the molar value.
Experiments:
[1] = tested on: SK-MEL-2 (melanoma); assay: MTS cell viability assay, SK-MEL-2; type: cell-based
Method: (§1) Cells were plated, the evening before treatment, for each treatment on 96-well plates (1×10^4 cells/well) in 100 μL volume per well. Analog solutions were prepared by diluting each test compound in DMSO (10 mM) with the appropriate cell growth media for each individual cell line, or in “Universal Media” if several cell lines were to be assayed in parallel, immediately prior to cell treatment. Universal Media consisted of 5 mL sodium pyruvate (100× liquid stock, MediaTech), 5 mL glucose (100×, 45% liquid stock, MediaTech), 5 mL Penicillin/Streptomycin (100× liquid stock, MediaTech), 10 mL sodium bicarbonate (50× liquid stock, MediaTech), 25 mL Fetal Calf Serum, 1.25 mL insulin (4 mg/mL, Gibco) and 449 mL RPMI media with 2 mM L-glutamine for a total volume of 500 mL.
(§2) Cells were treated by aspirating plating media from each well and adding 80 μL of betulinic acid (control) or each analog solution in serial dilutions to the adherent cells. All treatments were performed in triplicate. Growth media (80 μL) was added to 3 blank wells (no cells) to measure background from the growth media. Growth media alone (no DMSO or test compound) was added to 3 wells containing cells to measure the baseline MTS activity. Vehicle (DMSO) control in serial dilutions, added to cells, was also included to monitor basal toxicity from DMSO. Cells were incubated at 37° C. for 72 h, or 120 h for the OVCAR cell lines. MTS reagent (per 96-well plate) were prepared by combining 2 mL of MTS working solution (Cell Titer Aqueous Non-Radioactive Cell Proliferation Assay, Promega, cat#G1112), 100 μL of 0.92 mg/mL phenazine methosulfate/Dulbecco's PBS and 2.1 mL growth media. MTS reagent (40 μL) was added to each well and incubated at 37° C. for 1.5 to 4 h. Plates were gently shaken by hand until solution in each well appeared homogenous. Absorbances at 490 nm were measured on a Wallac Victor II plate reader at multiple time points following the addition of MTS reagent for each plate. Triplicate absorbance (490 nm) measurements were averaged following background (no cell) subtraction for each drug concentration. Percent Cell Viability was calculated for each drug concentration using the following equation:
(§3) {[Absorbance(analog treated)]/[Absorbance(DMSO treated)]}×100%
(§4) Percent viability (y-axis) was plotted against drug concentration (x-axis) and the resulting graph was used to determine the 50% inhibitory concentration (IC50) for each drug.
(§5) Cytotoxicity dose response for the synthesized triterpenoid derivatives in SK-MEL-2 (melanoma), A-375 (melanoma), Daoy (glioblastoma), LN-229 (glioblastoma), OVCAR-3 (ovarian carcinoma), HT-29 (colon carcinoma), MCF-7 (breast carcinoma) cell lines using the standard MTS assay (described above) is summarized in Table 1.

[2] = tested on: Daoy (glioblastoma); assay: MTS cell viability assay, Daoy; type: cell-based; conditions: 72 h incubation
Method: as §1, §2, §3, §4, §5

[3] = tested on: A-375 (melanoma); assay: MTS cell viability assay, A-375; type: cell-based
Method: as §1, §2, §3, §4, §5

[4] = tested on: LN-229 (glioblastoma); assay: MTS cell viability assay, LN-229; type: cell-based
Method: as §1, §2, §3, §4, §5

[5] = tested on: HT-29 (colon carcinoma); assay: MTS cell viability assay, HT-29; type: cell-based
Method: as §1, §2, §3, §4, §5

[6] = tested on: MCF-7 (breast carcinoma); assay: MTS cell viability assay, MCF-7; type: cell-based
Method: as §1, §2, §3, §4, §5

[7] = tested on: human colon carcinoma cell lines (Caco-2); conditions: Caco-2, at approximately 60 minutes; cited from earlier work
[8] = tested on: murine melanoma B16 cells; conditions: cited from earlier work
[9] = tested on: human leukemia HL-60 cells; conditions: by decrease in telomerase activity and down-regulation of bcl-2; cited from earlier work
[10] = tested on: OVCAR-3 (ovarian carcinoma); assay: MTS cell viability assay, OVCAR-3; type: cell-based; conditions: 120 h for the OVCAR cell lines
Method: as §1
Cells were treated by aspirating plating media from each well and adding 80 μL of betulinic acid (control) or each analog solution in serial dilutions to the adherent cells. […] Absorbances at 490 nm were measured on a Wallac Victor II plate reader at multiple time points following the addition of MTS reagent for each plate. Triplicate absorbance (490 nm) measurements were averaged following background (no cell) subtraction for each drug concentration. Percent Cell Viability was calculated for each drug concentration using the following equation:
{[Absorbance(analog treated)]/[Absorbance(DMSO treated)]}×100% […]

[11] = Homo sapiens, SK-MEL-2, 72 h incubation
[12] = Homo sapiens, A-375, 72 h incubation
[13] = Homo sapiens, LN-229, 72 h incubation
[14] = Homo sapiens, HT-29, 72 h incubation
[15] = Homo sapiens, MCF7, 72 h incubation

Structure (SMILES)	pIC50 [1, 11]	pIC50 ([2]; Homo sapiens, Daoy)	other results
C=C(CO)[C@@H]1CC[C@]2(COC(C)=O)CC[C@]3(C)[C@H](CC[C@@H]4[C@@]5(C)CC[C@H](O)C(C)(COC(C)=O)[C@@H]5CC[C@]43C)[C@@H]12 (stereo partly drawn) [Compound 43e]	4.80	4.80	–
C=C(CO)[C@@H]1CC[C@]2(C(=O)O)CC[C@]3(C)[C@H](CC[C@@H]4[C@@]5(C)CCC(N)C(C)(CO)[C@@H]5CC[C@]43C)[C@@H]12 (stereo partly drawn) [Compound 44a]	< 4.12	< 4.12	–
C=C(C)[C@@H]1CC[C@]2(CO)CC[C@]3(C)[C@H](CC[C@@H]4[C@@]5(C)CCC(NC(C)=O)C(C)(CO)[C@@H]5CC[C@]43C)[C@@H]12 (stereo partly drawn) [Compound 27]	4.19	< 4.12	–
C=C(C)[C@@H]1CC[C@]2(CO)CC[C@]3(C)[C@H](CC[C@@H]4[C@@]5(C)CCC(N)C(C)(CO)[C@@H]5CC[C@]43C)[C@@H]12 (stereo partly drawn) [Compound 23]	5.70	5.70	pIC50 [3, 12]: 5.30; pIC50 [4, 13]: 4.82; pIC50 [5, 14]: 5.22; pIC50 [6, 15]: 5.30
C=C(C)[C@@H]1CC[C@]2(C#N)CC[C@]3(C)[C@H](CC[C@@H]4[C@@]5(C)CCC(N)C(C)(CO)[C@@H]5CC[C@]43C)[C@@H]12 (stereo partly drawn) [Compound 37]	4.85	4.77	–
C=C(C=O)[C@@H]1CC[C@]2(COC(C)=O)CC[C@]3(C)[C@H](CC[C@@H]4[C@@]5(C)CCC(=O)C(C)(COC(C)=O)[C@@H]5CC[C@]43C)[C@@H]12 (stereo partly drawn) [Compound 49a]	5.30	5.05	pIC50 [3, 12]: 5.30; pIC50 [4, 13]: 4.82; pIC50 [5, 14]: 5.30; pIC50 [6, 15]: 5.40
C=C(CO)[C@@H]1CC[C@]2(COC(C)=O)CC[C@]3(C)[C@H](CC[C@@H]4[C@@]5(C)CCC(=O)C(C)(COC(C)=O)[C@@H]5CC[C@]43C)[C@@H]12 (stereo partly drawn) [Compound 40c]	4.48	4.25	–
C=C(C)[C@@H]1CC[C@]2(C(=O)O)CC[C@]3(C)[C@H](CC[C@@H]4[C@@]5(C)CC[C@H](O)C(C)(CO)[C@@H]5CC[C@]43C)[C@@H]12 (stereo partly drawn) [Compound 1, 23-Hydroxybetulinic acid]	< 4.12	< 4.12	intracellular concentration (cellular uptake) [7]: 906.7 μM/mg protein; growth arrest and apoptotic cell death, B16 ([8]; by increase in reactive oxidative species and dissipation of mitochondrial membrane potential): induces growth arrest and apoptotic cell death; potency against murine melanoma B16 cells ([8]; compared with betulinic acid (2)): increased potency; growth arrest and apoptotic cell death, HL-60 [9]: induces growth arrest and apoptotic cell death
C=C(CO)[C@@H]1CC[C@]2(C#N)CC[C@]3(C)[C@H](CC[C@@H]4[C@@]5(C)CCC(N)C(C)(CO)[C@@H]5CC[C@]43C)[C@@H]12 (stereo partly drawn) [Compound 44d]	4.49	4.14	–
C=C(C)[C@@H]1CC[C@]2(C(=O)O)CC[C@]3(C)[C@H](CC[C@@H]4[C@@]5(C)CC[C@H](O)C(C)(C)[C@@H]5CC[C@]43C)[C@@H]12 [Compound 2, betulinic acid, reference compound]	–	–	pIC50 ([1]; 72 h incubation): 4.48; pIC50 ([3]; 72 h incubation): 4.29; pIC50 [2]: 4.51; pIC50 ([4]; 72 h incubation): 4.21; pIC50 [10]: 4.23; pIC50 ([5]; 72 h incubation): 4.43; pIC50 ([6]; 72 h incubation): 4.30
C=C(C)[C@@H]1CC[C@]2(COC(C)=O)CC[C@]3(C)[C@H](CC[C@@H]4[C@@]5(C)CCC(=O)C(C)(COC(C)=O)[C@@H]5CC[C@]43C)[C@@H]12 (stereo partly drawn) [Compound 38]	4.74	4.51	–
C=C(C)[C@@H]1CC[C@]2(C(=O)O)CC[C@]3(C)[C@H](CC[C@@H]4[C@@]5(C)CCC(N)C(C)(CO)[C@@H]5CC[C@]43C)[C@@H]12 (stereo partly drawn) [Compound 22]	4.44	4.42	–
C=C(C)[C@@H]1CC[C@]2(CO)CC[C@]3(C)[C@H](CC[C@@H]4[C@@]5(C)CC[C@H](O)C(C)(CO)[C@@H]5CC[C@]43C)[C@@H]12 (stereo partly drawn) [Compound 5, 23-hydroxybetulin, reference compound]	< 4.12	4.19	–
C=C(C)[C@@H]1CC[C@]2(COC(C)=O)CC[C@]3(C)[C@H](CC[C@@H]4[C@@]5(C)CCC(NC(C)=O)C(C)(COC(C)=O)[C@@H]5CC[C@]43C)[C@@H]12 (stereo partly drawn) [Compound 25]	4.44	4.42	–
C=C(C)[C@@H]1CC[C@]2(CO)CC[C@]3(C)[C@H](CC[C@@H]4[C@@]5(C)CCC(=NOC(C)=O)C(C)(COC(C)=O)[C@@H]5CC[C@]43C)[C@@H]12 (stereo partly drawn) [Compound 15b]	4.46	4.47	–
C=C(C)[C@@H]1CC[C@]2(C=NO)CC[C@]3(C)[C@H](CC[C@@H]4[C@@]5(C)CCC(=NO)C(C)(CO)[C@@H]5CC[C@]43C)[C@@H]12 (stereo partly drawn) [Compound 30]	5.52	5.30	pIC50 [3, 12]: 5.40; pIC50 [4, 13]: 4.80; pIC50 [5, 14]: 4.89; pIC50 [6, 15]: > 5.70
C=C(C)[C@@H]1CC[C@]2(COC(C)=O)CC[C@]3(C)[C@H](CC[C@@H]4[C@@]5(C)CCC(=O)C(C)(CO)[C@@H]5CC[C@]43C)[C@@H]12 (stereo partly drawn) [Compound 18c]	4.54	4.80	–
C=C(C)[C@@H]1CC[C@]2(C(=O)O)CC[C@]3(C)[C@H](CC[C@@H]4[C@@]5(C)CCC(=O)C(C)(CO)[C@@H]5CC[C@]43C)[C@@H]12 (stereo partly drawn) [Compound 4, 23-hydroxybetulonic acid, reference compound]	4.48	4.23	–
C=C(C)[C@@H]1CC[C@]2(COC(C)=O)CC[C@]3(C)[C@H](CC[C@@H]4[C@@]5(C)CCC(=NO)C(C)(CO)[C@@H]5CC[C@]43C)[C@@H]12 (stereo partly drawn) [Compound 17c]	4.80	4.80	–
C=C(C)[C@@H]1CC[C@]2(CO)CC[C@]3(C)[C@H](CC[C@@H]4[C@@]5(C)CCC(=O)C(C)(CO)[C@@H]5CC[C@]43C)[C@@H]12 (stereo partly drawn) [Compound 18b]	< 4.12	4.47	–
C=C(CO)[C@@H]1CC[C@]2(C#N)CC[C@]3(C)[C@H](CC[C@@H]4[C@@]5(C)CCC(=NOC(C)=O)C(C)(COC(C)=O)[C@@H]5CC[C@]43C)[C@@H]12 (stereo partly drawn) [Compound 39d]	4.85	4.48	melting point: 141 to 143 °C
C=C(C)[C@@H]1CC[C@]2(C=NO)CC[C@]3(C)[C@H](CC[C@@H]4[C@@]5(C)CCC(=NOC(C)=O)C(C)(COC(C)=O)[C@@H]5CC[C@]43C)[C@@H]12 (stereo partly drawn) [Compound 29]	4.80	4.85	–
C=C(CO)[C@@H]1CC[C@]2(CO)CC[C@]3(C)[C@H](CC[C@@H]4[C@@]5(C)CCC(N)C(C)(CO)[C@@H]5CC[C@]43C)[C@@H]12 (stereo partly drawn) [Compound 44b]	4.77	4.74	–
C=C(CO)[C@@H]1CC[C@]2(C(=O)O)CC[C@]3(C)[C@H](CC[C@@H]4[C@@]5(C)CC[C@H](O)C(C)(CO)[C@@H]5CC[C@]43C)[C@@H]12 (stereo partly drawn) [Compound 43a]	< 4.12	< 4.12	–
C=C(C)[C@@H]1CC[C@]2(C#N)CC[C@]3(C)[C@H](CC[C@@H]4[C@@]5(C)CCC(=NOC(C)=O)C(C)(COC(C)=O)[C@@H]5CC[C@]43C)[C@@H]12 (stereo partly drawn) [Compound 35]	4.62	4.51	–
